Laboratory results from PMC11990879, “Anticandidal Activity of Lipopeptides Containing an LL-37-Derived Peptide Fragment KR12” (Molecules, 2025).
≈ marks a conversion by molar mass, not a printed value. Like-named read-outs stand apart in the source and are kept apart here. Marks after values point to notes of the source that are not given here. Where a SMILES comes first, the peptide text is derived from it. Where no end group is shown, it is not given here. The star is where a group is joined. Benzoyl(4-Ph) = O=C(c1ccc(-c2ccccc2)cc1)*; PhAc = O=C(Cc1ccccc1)*

Experiments:
C. albicans ATCC 10231 [1] = assay: microbe, parasite or virus in culture; type: cell-based, Candida albicans; details: C. albicans; RPMI 1640, inoculum ca. 5 × 10^3 CFU/mL, range 0.5–256 mg/L, 48 h, 25 °C, read visually, three times on three days
Protocol: (§1) Fungal strains were purchased from the Polish Collection of Microorganisms (Polish Academy of Science, Wroclaw, Poland). Four reference strains of Candida (C. albicans ATCC 10231, C. glabrata ATCC 15126, C. lypolytica PCM 2680, and C. tropicalis PCM 2680) were cultured on the Dextrose Sabouraud Agar (DSA, Neogen, Lansing, MI, USA). Before performing the assays, the fungi were cultured in a Sabouraud dextrose broth (DSB, Neogen, Lansing, MI, USA) for 48 h under aerobic conditions at 25 °C. Afterward, the fungal cultures were centrifuged (2500 rpm, 10 min) and resuspended in the appropriate liquid medium for appropriate inoculums for the performed assays.
(§2) The strains cultured described in Section 4.1 were suspended in the Roswell Park Memorial Institute 1640 Medium (RPMI, Sigma-Aldrich, St. Louis, MO, USA) at an initial inoculum of ca. 5 × 10^3 CFU/mL. The stock solutions (1024 mg/L) of tested compounds in RPMI were added to 96-well polystyrene plates and diluted serially to well no. 10, leaving wells 11 and 12 for fertility and sterility controls. The tested Candida strains were exposed to graded concentrations (range 0.5–256 mg/L) of the lipopeptides and conventional antifungals (benzalkonium chloride, fluconazole, and nystatin) for 48 h under aerobic conditions at 25 °C. After incubation, the results were read visually.

C. albicans ATCC 10231 [2] = assay: microbe, parasite or virus in culture; type: cell-based, Candida albicans; details: MIC wells and two higher concentrations seeded on DSA, 48 h, 25 °C, read visually, three times
Protocol: as §1, §2
(§3) Then the results were read visually. Both MIC as well as the MFC assays were performed threetimes on three different days.

C. glabrata ATCC 15126 [3] = assay: microbe, parasite or virus in culture; type: cell-based, Candida glabrata; details: first C. glabrata column; RPMI 1640, inoculum ca. 5 × 10^3 CFU/mL, range 0.5–256 mg/L, 48 h, 25 °C, read visually, three times on three days
Protocol: as §1, §2

C. glabrata ATCC 15126 [4] = assay: microbe, parasite or virus in culture; type: cell-based, Candida glabrata; details: MIC wells and two higher concentrations seeded on DSA, 48 h, 25 °C, read visually, three times
Protocol: as §1, §2, §3

C. lypolytica PCM 2680 [5] = assay: microbe, parasite or virus in culture; type: cell-based, Candida lipolytica; details: RPMI 1640, inoculum ca. 5 × 10^3 CFU/mL, range 0.5–256 mg/L, 48 h, 25 °C, read visually, three times on three days
Protocol: as §1, §2

C. lypolytica PCM 2680 [6] = assay: microbe, parasite or virus in culture; type: cell-based, Candida lipolytica; details: MIC wells and two higher concentrations seeded on DSA, 48 h, 25 °C, read visually, three times
Protocol: as §1, §2, §3

C. tropicalis PCM 2680 [7] = assay: microbe, parasite or virus in culture; type: cell-based, Candida tropicalis; details: C. tropicalis; RPMI 1640, inoculum ca. 5 × 10^3 CFU/mL, range 0.5–256 mg/L, 48 h, 25 °C, read visually, three times on three days
Protocol: as §1, §2

C. tropicalis PCM 2680 [8] = assay: microbe, parasite or virus in culture; type: cell-based, Candida tropicalis; details: MIC wells and two higher concentrations seeded on DSA, 48 h, 25 °C, read visually, three times
Protocol: as §1, §2, §3

human red blood cells = details: cited from earlier work
Description: Table 2 Minimum inhibitory concentrations (MIC) and minimum fungicidal concentrations (MFC) determined for peptides and reference antifungals [g/L]. The highest antimicrobial activity is marked in green, medium values in yellow, while the weakest antifungal activity is marked in red. Minimum hemolytic concentration (MHC5%—causing hemolysis of 5% of human red blood cells) determined in previous stu | column: MHC5%

[9] = test system: C. albicans biofilms cultured on polystyrene; type: cell-based, Candida albicans
Protocol: as §1
Fungal suspensions in DSB were added to the wells at initial inoculums of ca. 5 × 10^6 CFU/mL and incubated under aerobic conditions, at 25 °C for 24 h, 48 h, and 72 h, in order to grow candidal biofilms of different maturity. After the appropriate time of incubation, the wells were washed with phosphoric buffered (PBS), and fresh RPMI medium supplemented with antifungals and the lipopeptides at graded concentrations (range […]) were added. The fungal biofilms were exposed to the compounds for 24 h (aerobic conditions, 25 °C). After the exposure to antifungals, the content of the wells was aspirated and a 0.01% solution of resazurin (Sigma-Aldrich, St. Louis, MO, USA) in DSB was added. Resazurin (blue) was applied as a cell viability reagent, which upon contact with living cells is reduced to a pink resorufin. The samples with the dye were incubated for 1 h at 25 °C and the absorbance was measured at 570 and 600 nm with a microplate reader (Thermo Fisher Scientific, Waltham, MA, USA). The assays were performed four times on four different days. The results are presented as the means of the measured percentage of metabolic activity (MA) of fungi in the well when compared with positive (sample with Candida in DSB) and negative controls (pure DSB), which were taken as 100% and 0%, respectively. The MA of Candida in the samples was measured according to the following formula:MA(%) = (ΔAbs of sample − ΔAbs of negative control)/(ΔAbs of positive control − ΔAbs of negative control);(1) ΔAbs = absorbance at 570 nm − absorbance at 600 nm.(2)
The MBEC was taken as the lowest concentration of antifungal which allowed us to reduce the metabolism of fungal cells to 10% (or less) of the positive control.

[10] = test system: Candida strains (C. albicans, C. glabrata, C. lipolytica, C. tropicalis); type: cell-based
Protocol: as §1, §2, §3

[11] = biofilms cultured on polystyrene, 24 h
[12] = biofilms cultured on polystyrene, 48 h
[13] = biofilms cultured on polystyrene, 72 h

| Compound | Minimum inhibitory concentration (MIC), C. albicans (C. albicans ATCC 10231 [1]) [µg/mL] | Minimum fungicidal concentration (MFC), C. albicans (C. albicans ATCC 10231 [2]) [µg/mL] | Minimum inhibitory concentration (MIC), C. glabrata (C. glabrata ATCC 15126 [3]) [µg/mL] | Minimum fungicidal concentration (MFC), C. glabrata (C. glabrata ATCC 15126 [4]) [µg/mL] | Minimum inhibitory concentration (MIC), C. lipolytica (C. lypolytica PCM 2680 [5]) [µg/mL] | Minimum fungicidal concentration (MFC), C. lipolytica (C. lypolytica PCM 2680 [6]) [µg/mL] | Minimum inhibitory concentration (MIC), C. tropicalis (C. tropicalis PCM 2680 [7]) [µg/mL] | Minimum fungicidal concentration (MFC), C. tropicalis (C. tropicalis PCM 2680 [8]) [µg/mL] | MHC5% (minimum hemolytic concentration causing hemolysis of 5% of human red blood cells) (human red blood cells; human red blood cells, determined in previous studies, ref [13],[14]) [g/L] | MBEC 24 h [9, 11] | MBEC 48 h [9, 12] | MBEC 72 h [9, 13] | MIC, range over the tested strains ([10]; 48 h) [µg/mL] | MHC5% (minimum hemolytic concentration causing hemolysis of 5% of human red blood cells) (human red blood cells) | MBEC 24 h ([9]; C. albicans biofilm cultured on polystyrene for 24 h, exposure 24 h, 25 °C, RPMI, resazurin, metabolic activity reduced to 10% or less, four times on four days) [mg/L] | MBEC 48 h ([9]; C. albicans biofilm cultured on polystyrene for 48 h, exposure 24 h, 25 °C, RPMI, resazurin, metabolic activity reduced to 10% or less, four times on four days) [mg/L] | MBEC 72 h ([9]; C. albicans biofilm cultured on polystyrene for 72 h, exposure 24 h, 25 °C, RPMI, resazurin, metabolic activity reduced to 10% or less, four times on four days) [mg/L] | Concentration effective against 48–72 h biofilms relative to MIC ([9]; C. albicans, 48–72 h biofilms, MBEC/MIC) [times] | Concentration effective against 24 h biofilm relative to MIC ([9]; C. albicans, 24 h biofilm, MBEC/MIC) | Fungicidal activity (MFC relative to MIC) ([10]; MFCs equal to or twice as high as the corresponding MICs) |
| --- | --- | --- | --- | --- | --- | --- | --- | --- | --- | --- | --- | --- | --- | --- | --- | --- | --- | --- | --- | --- |
| CC[C@H](C)[C@H](NC(=O)[C@H](CCCNC(=N)N)NC(=O)[C@H](CCC(N)=O)NC(=O)[C@@H](NC(=O)[C@@H](NC(=O)[C@H](CCCNC(=N)N)NC(=O)[C@H](CCCCN)NC(=O)Cc1ccccc1)[C@@H](C)CC)C(C)C)C(=O)N[C@@H](CCCCN)C(=O)N[C@@H](CC(=O)O)C(=O)N[C@@H](Cc1ccccc1)C(=O)N[C@@H](CC(C)C)C(=O)N[C@@H](CCCNC(=N)N)C(N)=O [XXI, Phenylacetic acid-KR12-NH2] (PhAc-KRIVQRIKDFLR-NH2) | 64 (≈ 37.9 µM) | 64 (≈ 37.9 µM) | 256 (≈ 152 µM) | 256 (≈ 152 µM) | 16 (≈ 9.47 µM) | 16 (≈ 9.47 µM) | 8 (≈ 4.74 µM) | 16 (≈ 9.47 µM) | 256 |  |  |  |  |  |  |  |  |  |  |  |
| CC[C@H](C)[C@H](NC(=O)[C@H](CCCNC(=N)N)NC(=O)[C@H](CCC(N)=O)NC(=O)[C@@H](NC(=O)[C@@H](NC(=O)[C@H](CCCNC(=N)N)NC(=O)[C@H](CCCCN)NC(=O)c1ccc(-c2ccccc2)cc1)[C@@H](C)CC)C(C)C)C(=O)N[C@@H](CCCCN)C(=O)N[C@@H](CC(=O)O)C(=O)N[C@@H](Cc1ccccc1)C(=O)N[C@@H](CC(C)C)C(=O)N[C@@H](CCCNC(=N)N)C(N)=O [XXV, 4-Phenylbenzoic acid-KR12-NH2] ({Benzoyl(4-Ph)}-KRIVQRIKDFLR-NH2) |  |  |  |  |  |  |  |  |  | >512 * mg/L | >512 * mg/L | >512 * mg/L | 4 to 16 | 32 g/L |  |  |  |  |  |  |
| KRIVQRIKDFLR-NH2 [X, KR12-NH2] |  |  |  |  |  |  |  |  |  | >512 * mg/L | >512 * mg/L | >512 * mg/L |  | >256 * g/L |  |  |  |  |  |  |
| benzalkonium chloride [reference compound] | 2 | 4 | 1 | 2 | 1 | 2 | 0.5 | 2 |  |  |  |  |  |  | 64 | 128 | 128 | > 60 | over 30 times | fungicidal activity against all Candida strains |
